Assay [1] has as its system human breast carcinoma. Nature of the assay: Dipping of fresh human breast carcinoma samples in FAM-labelled peptide. Type of assay: binding. As for the experimental part: Fresh, untreated samples of human breast carcimoma were dipped, 1 hr post surgery, in 20 μM FAM-CSG for 1 hr, followed by 3×1.5 min washes with 1× PBS.
This absence of binding of PAM-ARA was confirmed using anti-fluorescein antibody (data not shown).

The subject of assay [2] is tumour ECM. Description: Co-localisation of CSG with ECM markers in tumour tissue sections. The assay is classed as binding, mouse and human. As for the experimental part:
Following incubation of whole tissue (for mouse insulinoma and human breast cancer) or 8 μm tissue cross section, (for mouse and human HCC) with FAM-CSG peptide, tissue cross sections were co-stained with 0.3 μg in 100 μL of anti-nidogen-1 (Rat anti-monoclonal mouse nidogen-1, Millipore) or anti-collagen-1 (Rabbit polyclonal collagen 1, Abeam) markers of ECM, for 1 hr at room temperature. Stained sections were washed 3× with 1×TBS buffer. Tissue sections were re-incubated with donkey anti-Rat or Rabbit IgG (H+L) secondary antibody Alexa 594 (0.4 μg in 100 μL for 30 min. at room temperature), followed by 3×wash with 1×TBS buffer. Co-localisation of CSG with these ECM markers highlights the specificity of CSG binding to tumour ECM (FIG. 2). Co-localisation was not observed in normal healthy tissue.

In assay [3] the test system is fibrotic tissue. Description: Binding to liver tissue sections of mice fed choline deficient diet. Also on record: species or system mice (C57BL/6 strain). As for the experimental part:
Mice (C57BL/6 strain) were fed a choline deficient diet, for 4 weeks (early liver fibrosis), 16 weeks (advanced fibrosis-cirrhosis) or 28 weeks (advanced HCC), after which liver tissue was examined. Acetone-fixed fresh frozen 8 μm issue cross sections were incubated with either 1 μM FAM-CSG or 5 μM FAM-ARA for 30 min in 1×PBS buffer at room temperature, FAM-CSG or FAM-ARA binding were confirmed using anti-FITC-HRP antibody staining.

Assay [4] deals with aorta containing plaque. Description: In vivo accumulation of FAM-CSG in aorta containing plaque. Also on record: species or system mice. The following applies: 1 hr after i.v. injection of 100 μl 1 mM FAM-CSG.
The test system of assay [5] is occluded arteries. Nature of the assay: Dipping assay of occluded arteries from a human patient. Type of assay: binding. The following applies: occlusive peripheral vascular disease, after limb amputation.
The test system of assay [6] is hepatocellular carcinoma or breast carcinoma. Nature of the assay: FAM-CSG accumulation in tumours after tail vein injection. The assay is classed as in vivo, mice. The following applies: 100 μL of 1 mM i.v., tissue harvested 1 hr after injection. As for the experimental part:
Fluorescein-labelled (FAM)-CSG (CSGRRSSKC; SEQ ID NO:1) (100 μL of 1 mM stock made in sterile 1× PBS) was injected into the tail vein of tumour-bearing mice (hepatocellular carcinoma or breast carcinoma, in C3H and BALB/c strains, respectively). Tissue was harvested without perfusion 1 hr after injection and peptide accumulation observed under UV illumination. […] Homing was specific to tumours, with only clearance organs (intestines, kidneys) showing limited accumulation of FAM-CSG.

The test system of assay [7] is plaques from the ApoE null mice. Nature of the assay: Incubation of aorta with FAM-labelled peptide. Type of assay: binding. The settings on record: 20 nmol/ml. As for the experimental part:
To determine whether CSG also recognises fibroatheroma, healthy aorta from wild type C57BL/6 mice and aorta from ApoE null mice were incubated with 20 nmol/ml fluorescein-labelled FAM-CSG or ARA control.

Ends that are not written are not given here. FAM = fluorescein label (FAM, fluorescein-labelled)

Turning to CSGRRSSKC, the “effect of preincubation with unlabeled peptide on FAM-CSG accumulation” value in assay [1] (excess 1 mg unlabeled CSG) is “abolished the FAM-CSG specific penetration and accumulation in tumours”. The “co-localisation with ECM markers in tumours” value in assay [2] (murine insulinoma and HCC, human breast carcinoma and HCC) was “co-localises with two known ECM markers, collagen-1 and nidogen-1”. The “co-localisation with ECM markers in normal healthy tissue” value in assay [2] (normal healthy tissue) is “not observed”. Also, the “binding to fibrotic liver tissue” value in assay [3] (4, 16 or 28 weeks choline deficient diet, 1 μM FAM-CSG, 30 min) is “effectively binds fibrotic tissue at all stages”. Also, in assay [4], the “co-localisation of in vivo accumulation with ECM marker” value is given as “co-localises with the ECM marker laminin”. In addition, the “binding to human occluded arteries and plaques” value in assay [5] is “specific binding of CSG to the occluded arteries and specific accumulation of CSG in plaques”.

With “FAM-ARA: control fluorescein-labelled (FAM)-ARA peptide, ARALPSQRSR (SEQ ID NO:5) ({FAM}-ARALPSQRSR) [reference compound]”, the “binding to human breast carcinoma tissue” value in assay [1] (control peptide) was “showed no binding to the human breast carcinoma tissue”.

In the case of “FAM-CSG: Fluorescein-labelled (FAM)-CSG (CSGRRSSKC; SEQ ID NO:1) ({FAM}-CSGRRSSKC; cysteine pairing not given here)”, the “peptide accumulation in tumours under UV illumination” value in assay [6] is recorded as “accumulates in both tumour types”. In addition, in assay [1] (20 μM for 1 hr), the “binding to human breast carcinoma tissue” value is “bound specifically to the tumour tissue and not to normal or marginal tissue”. Further, in assay [3] (1 μM, 30 min), the “co-localisation with ECM marker nidogen-1 in fibrotic liver” value is reported as “co-localised with staining for the ECM marker nidogen-1”. Moreover, in assay [3] (mice fed normal chow diet), the “binding to normal liver” value is “limited binding”. Moreover, the “binding to aortic plaques” value in assay [7] is “specifically bound to, and accumulated in, plaques”.
